From patent US20160237032A1, “PROCESS TO MANUFACTURE N-[(3S)-1-[4-[(3-FLUOROPHENYL)METHOXY]PHENYL]-5-OXO-PYRROLIDIN-3-YL]ACETAMIDE” (Hoffmann-La Roche Inc., priority 2013, published 2016)

Test: thermodynamic stability of polymorphic forms
Format: physicochemical
Conditions: at room temperature

CC(=O)N[C@H]1CC(=O)N(c2ccc(OCc3cccc(F)c3)cc2)C1 [Polymorph B, N-[(3S)-1-[4-[(3-fluorophenyl)methoxy]phenyl]-5-oxo-pyrrolidin-3-yl]acetamide]
thermodynamic stability of the crystal form: thermodynamically stable form
